Drawing on the SangsterLogP compilation, this text covers logP and logD for 134 compounds.

Each structure is given as a SMILES string.

As a reminder, the logP is a log measure of how a compound divides between an organic and an aqueous phase. A low value points to a more hydrophilic compound. Usually logD stands for lipophilicity at a set pH, counting ionised and neutral species. A lower logD goes with a more hydrophilic compound.

Details in the first data set: not given
The compound `OCCCO` yielded a log partition coefficient (logP) of -1.04.

On to `Cc1[nH]oc(=O)c1/N=N/c1ccccc1Cl`, for which the logP was 2.6.

For `Cn1c(N)nc2ccc(C#N)cc21`, the logP came to 1.29.

As to `COc1ccc(S(C)(=O)=O)cc1`, the logP stood at 0.76.

Compound `CC1=C(N2CC2)C(=O)c2ccc(CCOC(N)=O)c(N3CC3)c2C1=O` came in with a logP of 0.16.

Turning to `CCOC(=O)CCN(Cc1ccccc1)SN(C)C(=O)ON=C(C)SC`, the logP amounted to 3.43.

In the case of `COP(=O)(OC)OC(C)=CC(=O)N(C)C`, the logP is 0.

`c1ccc2c(c1)CCCC2` came in with a logP of 3.49.

`COc1ccc(CC#N)cc1OC` registered a logP of 1.15.

Consider `CCCSP(=S)(OCC)Oc1ccc(Cl)cc1Cl` (centres undefined), for which the logP was 4.92.

As for `COCC(C)OC` (centres undefined), the logP was -0.09.

Take `CC(C)SC(C)C`: the lipophilicity (logP) was 2.84.

`Cc1ccno1`: the log partition coefficient (logP) was 0.45.

As to `CC(=O)COc1ccccc1`, the logP worked out at 1.04.

`O=C(O)Cc1ccccc1Nc1c(F)cccc1Cl` displayed a log partition coefficient (logP) of 3.8.

Compound `CCC1OC(=O)C(C)C(OC2CC(C)(OC)C(O)C(C)O2)C(C)C(OC2OCC(O)C(N=[N+]=[N-])C2O)C(C)(O)CC(C)C(=O)CC(O)C1(C)O` (centres undefined) registered a lipophilicity (logP) of 1.76.

The compound `O=C1C=CC(=O)N1c1ccccc1` gave a lipophilicity (logP) of 1.09.

For `FC1(F)C(F)(F)C(F)(F)C(F)(F)C(F)(F)C1(F)F`, the log partition coefficient (logP) was found to be 2.91.

The compound `CCOc1ccccc1OCC` had a lipophilicity (logP) of 2.42.

In turn, `NC1CC1` showed a log partition coefficient (logP) of 0.07.

For `O=Cc1ccccn1`, the logP was determined as 0.44.

Consider `COC(=O)CC(=O)OC`, for which the logP was -0.05.

`c1ccc2c(c1)Oc1ccccc1S2` displayed a logP of 4.54.

Compound `O=C1C=C(N2CCCC2)C(=O)C=C1N1CCCC1` gave a logP of 1.97.

`O=[N+]([O-])c1ccco1` came in with a lipophilicity (logP) of 0.66.

Consider `N#CNc1ccccc1`, for which the lipophilicity (logP) amounted to 1.87.

Compound `CCCN(CCC)c1c([N+](=O)[O-])cc(S(N)(=O)=O)cc1[N+](=O)[O-]` displayed a log partition coefficient (logP) of 3.73.

`CN(C)c1ccc(C#N)cc1` returned a logP of 2.2.

`Cc1ccc(-c2noc(C)n2)cc1` came in with a logP of 2.74.

Turning to `COc1ccc2c(c1)nc(N)n2C`, the logP came out at 0.87.

Consider `Cc1nn(C)c(OCC(=O)c2ccccc2)c1C(=O)c1ccc(Cl)cc1Cl`, for which the logP turned out to be 3.69.

As for `C/C=C\C=C\C`, the log partition coefficient (logP) was determined as 2.8.

As for `O=[N+]([O-])c1ccc(Nc2ccccc2)cc1`, the lipophilicity (logP) was found to be 3.74.

`Cn1c(N)nc2ccccc21` had a logP of 0.95.

In turn, `O=S(Cc1ccccc1)Cc1ccccc1` yielded a log partition coefficient (logP) of 1.99.

For `Clc1c(Cl)c(Cl)c2ccccc2c1Cl`, the logP was 5.75.

`COP(=S)(OC)SCC(=O)N(C)C=O` showed a logP of 1.48.

For `CCCCSP(=O)(SCCCC)SCCCC`, the lipophilicity (logP) turned out to be 3.23.

Compound `CS(=O)(=O)CC#N` showed a logP of -1.42.

The compound `CC(=O)N=c1[nH]c(=O)ccn1C1OC(COC(C)=O)C(OC(C)=O)C1OC(C)=O` (centres undefined) showed a log partition coefficient (logP) of -0.16.

As to `CCc1cccc(CC)c1NC(=O)OC`, the lipophilicity (logP) was 1.99.

In the case of `O/N=C/c1ccncc1`, the logP worked out at 0.77.

In turn, `CCC(C)(C)Cl` yielded a logP of 2.52.

The compound `Cc1ccccc1COC1CC2(C(C)C)CCC1(C)O2` (centres undefined) displayed a logP of 3.83.

For the compound `c1ccc2c(c1)Cc1ccccc1S2`, the logP stood at 3.86.

As for `Nc1nc(=O)cc[nH]1`, the logP is -0.99.

Turning to `Nc1cc([N+](=O)[O-])cc([N+](=O)[O-])c1`, the lipophilicity (logP) is 1.89.

Regarding `CCCOCCN(C(=O)CCl)c1c(CC)cccc1CC`, the log partition coefficient (logP) came to 4.08.

As to `CCN(C(=O)SCc1ccccc1)C(C)C(C)C` (centres undefined), the log partition coefficient (logP) came out at 4.6.

`COc1cccc2ccccc12` had a logP of 3.63.

Compound `O=C1C(Br)=C(N2CC2)C(=O)C(Br)=C1N1CC1` had a logP of 2.03.

Regarding `CC(C(=O)O)c1ccc(N2C(=O)C3CCCCC3C2=O)cc1` (centres undefined), the lipophilicity (logP) stood at 2.37.

`CCNC(=O)c1ccco1` had a logP of 0.61.

`Clc1cc(Cl)nc(-c2ccccc2)n1` yielded a log partition coefficient (logP) of 4.17.

For `O=C(O)Cc1ccc(N2Cc3ccccc3C2=O)cc1`, the log partition coefficient (logP) amounted to 2.9.

With `CC(C)C(=O)C(C)C`, the logP was determined as 1.86.

Turning to `CCOc1cccnc1`, the logP turned out to be 1.44.

Compound `CC(=O)Nc1ncnc2c1ncn2C` displayed a logP of -0.41.

Turning to `CN(C)O`, the logP was -1.15.

In the case of `O=C(O)CCC(=O)c1ccc(N2Cc3ccccc3C2=O)cc1`, the log partition coefficient (logP) was found to be 1.92.

With `O/N=C/c1ccccc1`, the logP was found to be 1.85.

For the compound `CN(C(=O)COc1nc2ccccc2s1)c1ccccc1`, the logP was 3.23.

For the compound `CS(=O)(=O)N(c1ccccc1[N+](=O)[O-])S(C)(=O)=O`, the logP was 0.81.

Turning to `CCC(C)OC(C)=O` (centres undefined), the log partition coefficient (logP) stood at 1.72.

In turn, `CCSC` had a logP of 1.54.

`NC(=O)CCOc1ccccc1`: the log partition coefficient (logP) amounted to 0.8.

With `Fc1cccnc1`, the logP is 0.77.

Turning to `CC(=O)C1CC1`, the lipophilicity (logP) was determined as 0.49.

`OCC=CCO` displayed a logP of -0.81.

On to `O=C1C=CCO1`, for which the logP is -0.6.

Take `O=[N+]([O-])c1ccccc1CO`: the log partition coefficient (logP) turned out to be 1.24.

As to `FC(F)(F)c1ccccc1Cl`, the lipophilicity (logP) was 3.53.

The compound `CNc1c(Cl)cccc1Cl` registered a logP of 2.91.

As for `S=C(N/N=C/c1ccco1)Nc1ccccc1`, the logP was determined as 3.13.

Regarding `O/N=C/c1ccc(Cl)cc1`, the lipophilicity (logP) was 2.67.

Regarding `O=S(=O)(CCl)c1ccccc1`, the logP is 1.24.

In turn, `N#CC#N` had a lipophilicity (logP) of 0.07.

Turning to `CCCCCCCCCCCCCCc1cccc(N2C(N)=NC(N)=NC2(C)C)c1`, the logP was 3.64.

`O=C1CC(Sc2nc3ccccc3s2)N1` (centres undefined): the logP is 2.3.

`CC(C)CN(C)CC(C)C` yielded a logP of 2.34.

`CN(C)C1=CC(=O)c2ccccc2C1=O` gave a lipophilicity (logP) of 1.9.

`c1ccc(CCCc2ccccc2)cc1` gave a logP of 3.43.

On to `CNC(=O)c1ccoc1`, for which the logP turned out to be 0.34.

In turn, `CS(C)(=O)=O` had a lipophilicity (logP) of -1.34.

Turning to `Cc1cccc(OCC(O)CNC(C)C)c1` (centres undefined), the log partition coefficient (logP) came out at 2.02.

For `c1ccc2c(c1)CCc1ccccc1-2`, the logP was determined as 4.52.

In turn, `CC(C)=NOCCOC(=O)[C@@H](C)Oc1ccc(Oc2cnc3cc(Cl)ccc3n2)cc1` yielded a logP of 4.6.

`O=C(O)Cn1ccnc1[N+](=O)[O-]`: the log partition coefficient (logP) was -0.34.

As for `C#CCN(CC#C)CC#C`, the lipophilicity (logP) amounted to 1.27.

`Cc1cc(=O)cc(C)o1` showed a logP of 0.1.

In turn, `OCCCF` registered a lipophilicity (logP) of -0.28.

Turning to `Clc1nc(-c2ccccc2)nc2ccccc12`, the logP was 4.47.

Consider `NC(=O)CCNC(=O)C(F)(F)Cn1cncc1[N+](=O)[O-]`, for which the logP was -0.95.

`Nc1ccc([C@@H](O)[C@@H](CO)NC(=O)C(Cl)Cl)cc1` showed a logP of -0.29.

`C=C(C)Cl` had a lipophilicity (logP) of 2.

On to `Cn1c(N)nc2cc(Cl)c(Cl)cc21`, for which the log partition coefficient (logP) was 2.98.

Staying with this data set, now noted: pH 1.0.
For `O=C(O)CCCOc1ccc(Cl)cc1Cl`, the pH-dependent lipophilicity (logD) was found to be 3.53.

Take `CC(C)(C)C#N`: the pH-dependent lipophilicity (logD) amounted to 1.08.

Turning to `O=C(O)c1c2ccccc2cc2ccccc12`, the logD amounted to 3.85.

For the compound `Cn1nnnc1SCC1=C(C(=O)O)N2C(=O)[C@@H](NC(=O)[C@H](O)c3ccccc3)[C@H]2SC1`, the logD was determined as 0.25.

The data set is the same for the next values; noted with them: pH 2.1.
As to `CCCCCCOc1ccc(S(N)(=O)=O)cc1`, the pH-dependent lipophilicity (logD) was 2.93.

Staying with this data set, now noted: pH 4.0.
The compound `FC(F)(F)C(=NNc1ccc(Cl)c(Cl)c1)C(F)(F)F` showed a pH-dependent lipophilicity (logD) of 5.1.

As for `CC(=NNc1c([N+](=O)[O-])cc(C(F)(F)F)cc1[N+](=O)[O-])C(F)(F)F`, the log distribution coefficient (logD) was 3.

With `O=[N+]([O-])c1ccc(NN=C(C(F)(F)F)C(F)(F)F)c(C(F)(F)F)c1`, the logD worked out at 4.6.

Staying with this data set, now noted: pH 4.2.
`NC(=O)c1nc[nH]c1N=NN(CCO)CCO`: the logD is -1.04.

Still in this data set, the particulars now being: pH 5.0.
The compound `Sc1nc(-c2ccccc2)ns1` came in with a logD of 2.13.

The compound `c1n[nH]c2c1CC[C@H]1c3[nH]ncc3CC[C@H]21` came in with a logD of 0.3.

Compound `CCOC(=O)CCl` yielded a logD of 0.94.

Still in this data set, the particulars now being: pH 7.0.
For `COC(=O)c1ccc(NC(C)=O)cc1`, the logD turned out to be 1.64.

Take `CNc1ncnc2c1ncn2[C@H]1C[C@H](O)[C@@H](CO)O1`: the log distribution coefficient (logD) was -0.19.

Regarding `CCC1COC(Cn2cncn2)(c2ccc(-n3cncn3)cc2Cl)O1` (centres undefined), the logD turned out to be 1.28.

Consider `CCCCN(CC)c1c([N+](=O)[O-])cc(C(F)(F)F)cc1[N+](=O)[O-]`, for which the logD turned out to be 5.29.

As to `Nc1nc2c(ncn2[C@@H]2O[C@H](CO)[C@@H](O)[C@@H]2F)c(=O)[nH]1`, the logD was -1.18.

The same data set, now with this note: pH 7.4.
As for `Cn1cc2ccc([N+](=O)[O-])cc2n1`, the logD turned out to be 1.76.

In turn, `Cc1cc([N+](=O)[O-])cc2c1NC(=O)CN=C2c1ccccc1` returned a logD of 2.33.

The compound `CCc1ccc([N+](=O)[O-])cc1` yielded a logD of 3.03.

For the compound `Nc1ccc2nc3ccccn3c2n1`, the logD was 1.38.

`O=C1CN=C(c2ccccc2F)c2cc(Br)ccc2N1` registered a pH-dependent lipophilicity (logD) of 2.98.

In turn, `CC(C)Cn1c(=O)n(C)c(=O)c2[nH]c(CC(O)N3CCN(C(c4ccccc4)c4ccccc4)CC3)nc21` (centres undefined) registered a log distribution coefficient (logD) of 5.21.

`Cc1[nH]ccc2c1[nH]c1cc(=O)ccc12`: the logD was 2.18.

`O=[N+]([O-])c1ncn(CC(F)(F)CO)n1` came in with a logD of -0.21.

`COC(=O)c1ccc(-c2ncc([N+](=O)[O-])n2C)cc1` yielded a logD of 1.63.

As for `Cn1c(N)nc2ncc(-c3ccccc3)cc21`, the log distribution coefficient (logD) came to 2.23.

As to `Clc1cccc2cccnc12`, the logD stood at 2.44.

Compound `Cc1ccnc2ccccc12` showed a logD of 2.61.

Turning to `OCc1ccc2cccnc2c1`, the logD was 1.29.

Staying with this data set, now noted: pH 8.4.
Compound `Cn1ccnc1` had a pH-dependent lipophilicity (logD) of -0.06.

Staying with this data set, now noted: pH 12.0.
Compound `Nc1ccc2cc3ccc(N)cc3nc2c1` had a logD of 1.83.

Still in this data set, the particulars now being: pH 13.0.
The compound `c1ccc(C23CCN(CC2)CC3)cc1` showed a pH-dependent lipophilicity (logD) of 2.54.

Turning to `CC(C)(C)NCCO`, the logD amounted to 0.41.

In turn, `CC(C)CN(CC(O)COc1ccccc1)CC(O)COc1ccccc1` (centres undefined) returned a pH-dependent lipophilicity (logD) of 3.46.

Regarding `CN(C1CCCCC1)C1CCCCC1`, the logD stood at 3.71.

In the case of `COc1cccc(OC)c1Cc1cnc(N)nc1N`, the pH-dependent lipophilicity (logD) is 1.7.

In turn, `CCOC(CC)(OCC)OCC` yielded a logD of 1.97.
